Where a SMILES comes first, the peptide text is derived from it. [ ]: non-standard residue; d: D form. The star is where a group is joined. Myristoyl = CCCCCCCCCCCCCC(=O)*; Orn = NCCC[C@H](N)C(=O)O
How the values were obtained:
MDA-MB-231 cells = assay type: cell-based, human; conditions: 50 μM peptide, 48 hours, n = 1
Source text: (§1) Non-adherent cells were removed during the washing steps.

[1] = system: CD44^hiCD24^lo CSCs in MDA-MB-231 cells; assay: FACS analysis of CD44^hiCD24^lo cancer stem cells in MDA-MB-231 cells treated with P1 analogues; assay type: cell-based, human; conditions: 50 μM peptide, 48 hours; for CD44^hiCD24^lo CSCs (%) / COI, Live Single CD44^hiCD24^lo CSCs (Cell Count): n = 1; for Average Inhibition of CSCs (%) / CD44^hiCD24^lo CSCs (%) Repeat 1 / CD44^hiCD24^lo CSCs (%) Repeat 2 / CD44^hiCD24^lo CSCs (%) Repeat 3: n = 3
Procedure: Analogues of P1 (Table 6) were designed and synthesized in accordance with the procedure of Example 5. The ability of these analogues to inhibit cancer stem cells was determined using FACS analysis on MDA-MB-231 cells, which constitutively contain approximately 90% CD44^hiCD24^lo cancer stem cells, treated with the peptides.
as §1
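For COI, Live Single Cells (Cell Count) in this document: live means Hoechst-negative events among single cells.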

Compound | COI (Cell Count) (MDA-MB-231 cells) | COI, Live Single Cells (Cell Count) (MDA-MB-231 cells) | COI, Single (Cell Count) (MDA-MB-231 cells) | Total Cell Count (MDA-MB-231 cells) | Inhibition of CSCs (%) Repeat 1 [1] | Inhibition of CSCs (%) Repeat 2 [1] | Inhibition of CSCs (%) Repeat 3 [1] | CD44^hiCD24^lo CSCs (%) [1] | COI, Live Single CD44^hiCD24^lo CSCs (Cell Count) [1] | Average Inhibition of CSCs (%) [1] | CD44^hiCD24^lo CSCs (%) Repeat 1 [1] | CD44^hiCD24^lo CSCs (%) Repeat 2 [1] | CD44^hiCD24^lo CSCs (%) Repeat 3 [1]
CCCCCCCCCCCCCC(=O)N[C@@H](CC(C)C)C(=O)N[C@H](C(=O)N[C@@H](Cc1ccccc1)C(=O)N[C@H](C(=O)N[C@@H](Cc1ccccc1)C(=O)N[C@@H](CCCNC(=N)N)C(=O)N[C@@H](CCCCN)C(=O)N[C@@H](CCCNC(=N)N)C(=O)N[C@@H](CCCCN)C(=O)NCC(=O)N[C@@H](CCCNC(=N)N)C(=O)N[C@@H](CCSC)C(=O)N[C@@H](CCSC)C(=O)N[C@@H](CC(=O)O)C(=O)N[C@H](C(=O)N[C@@H](CCCCN)C(=O)N[C@@H](CCCCN)C(N)=O)C(C)C)[C@@H](C)CC)[C@@H](C)O [Peptide 2853822, Myristoyl-LTFIFRKRKGRMMDVKK-NH2] (Myristoyl-LTFIFRKRKGRMMDVKK-NH2) | 768 | 648 | 657 | 3204 | 81.93% | 81.80% | 81.03% | 4.78% | 31 | 81.59% | 16.19% | 16.33% | 17.02%
CCCCCCCCCCCCCC(=O)N[C@@H](CC(C)C)C(=O)N[C@H](C(=O)N[C@@H](Cc1ccccc1)C(=O)N[C@H](C(=O)N[C@@H](Cc1ccccc1)C(=O)N[C@@H](CCCNC(=N)N)C(=O)N[C@@H](CC(C)C)C(=O)N[C@@H](CCC(=O)O)C(=O)N[C@@H](CCCCN)C(=O)NCC(=O)N[C@@H](CCCNC(=N)N)C(=O)N[C@@H](CCSC)C(=O)N[C@@H](CCSC)C(=O)N[C@@H](CC(=O)O)C(=O)N[C@H](C(=O)N[C@@H](CCCCN)C(=O)N[C@@H](CCCCN)C(N)=O)C(C)C)[C@@H](C)CC)[C@@H](C)O [Peptide 2853823, Myristoyl-LTFIFRLEKGRMMDVKK-NH2] (Myristoyl-LTFIFRLEKGRMMDVKK-NH2) | 672 | 608 | 626 | 1209 | 80.72% | 81.08% | 82.74% | 3.62% | 22 | 81.52% | 17.28% | 16.97% | 15.49%
CCCCCCCCCCCCCC(=O)N[C@@H](CC(C)C)C(=O)N[C@H](C(=O)N[C@@H](Cc1ccccc1)C(=O)N[C@H](C(=O)N[C@@H](Cc1ccccc1)C(=O)N[C@@H](CCCNC(=N)N)C(=O)N[C@@H](CC(C)C)C(=O)N[C@@H](CCCCN)C(=O)N[C@@H](CCCCN)C(=O)NCC(=O)N[C@@H](CCCNC(=N)N)C(=O)N[C@@H](CCSC)C(=O)N[C@@H](CCSC)C(=O)N[C@@H](CC(=O)O)C(=O)N[C@H](C(=O)N[C@@H](CCCCN)C(=O)N[C@@H](CCCCN)C(N)=O)C(C)C)[C@@H](C)CC)[C@@H](C)O [Peptide 2853824, Myristoyl-LTFIFRLKKGRMMDVKK-NH2] (Myristoyl-LTFIFRLKKGRMMDVKK-NH2) | 4232 | 3743 | 3768 | 5455 | 77.86% | 79.50% | 76.91% | 16.54% | 619 | 78.09% | 19.85% | 18.39% | 20.72%
CCCCCCCCCCCCCC(=O)N[C@@H](CC(C)C)C(=O)N[C@H](C(=O)N[C@@H](Cc1ccccc1)C(=O)N[C@H](C(=O)N[C@@H](Cc1ccccc1)C(=O)N[C@@H](CCCNC(=N)N)C(=O)N[C@@H](CC(C)C)C(=O)N[C@@H](CCCNC(=N)N)C(=O)N[C@@H](CCCNC(C)=O)C(=O)NCC(=O)N[C@@H](CCCNC(=N)N)C(=O)N[C@@H](CCSC)C(=O)N[C@@H](CCSC)C(=O)N[C@@H](CC(=O)O)C(=O)N[C@H](C(=O)N[C@@H](CCCCN)C(=O)N[C@@H](CCCCN)C(N)=O)C(C)C)[C@@H](C)CC)[C@@H](C)O [Peptide 2853826, Myristoyl-LTFIFRLROrn(Ac)GRMMDVKK-NH2] (Myristoyl-LTFIFRLR[Orn](Ac)GRMMDVKK-NH2) | 554 | 160 | 433 | 3961 | 86.74% | 80.33% | 87.62% | 3.13% | 5 | 84.90% | 11.88% | 17.65% | 11.11%
CCCCCCCCCCCCCC(=O)N[C@@H](CC(C)C)C(=O)N[C@H](C(=O)N[C@@H](Cc1ccccc1)C(=O)N[C@H](C(=O)N[C@@H](Cc1ccccc1)C(=O)N[C@@H](CCCNC(=N)N)C(=O)N[C@@H](CC(C)C)C(=O)N[C@@H](CCCNC(=N)N)C(=O)N[C@@H](CCCCN)C(=O)N[C@@H](CC(=O)O)C(=O)N[C@@H](CCCNC(=N)N)C(=O)N[C@@H](CCSC)C(=O)N[C@@H](CCSC)C(=O)N[C@@H](CC(=O)O)C(=O)N[C@H](C(=O)N[C@@H](CCCCN)C(=O)N[C@@H](CCCCN)C(N)=O)C(C)C)[C@@H](C)CC)[C@@H](C)O [Peptide 2853827, Myristoyl-LTFIFRLRKDRMMDVKK-NH2] (Myristoyl-LTFIFRLRKDRMMDVKK-NH2) | 170 | 61 | 110 | 4681 | 95.44% | 91.08% | 89.47% | 1.64% | 1 | 92.00% | 4.09% | 8.00% | 9.45%
CCCCCCCCCCCCCC(=O)N[C@@H](CC(C)C)C(=O)N[C@H](C(=O)N[C@@H](Cc1ccccc1)C(=O)N[C@H](C(=O)N[C@@H](Cc1ccccc1)C(=O)N[C@@H](CCCNC(=N)N)C(=O)N[C@@H](CC(C)C)C(=O)N[C@@H](CCCNC(=N)N)C(=O)N[C@@H](CCCCN)C(=O)N[C@@H](CCCCN)C(=O)N[C@@H](CCCNC(=N)N)C(=O)N[C@@H](CCSC)C(=O)N[C@@H](CCSC)C(=O)N[C@@H](CC(=O)O)C(=O)N[C@H](C(=O)N[C@@H](CCCCN)C(=O)N[C@@H](CCCCN)C(N)=O)C(C)C)[C@@H](C)CC)[C@@H](C)O [Peptide 2853828, Myristoyl-LTFIFRLRKKRMMDVKK-NH2] (Myristoyl-LTFIFRLRKKRMMDVKK-NH2) | 182 | 28 | 146 | 3309 | 89.25% | 91.29% | 90.17% | 10.71% | 3 | 90.23% | 9.64% | 7.81% | 8.82%
CCCCCCCCCCCCCC(=O)N[C@@H](CC(C)C)C(=O)N[C@H](C(=O)N[C@@H](Cc1ccccc1)C(=O)N[C@H](C(=O)N[C@@H](Cc1ccccc1)C(=O)N[C@@H](CCCNC(=N)N)C(=O)N[C@@H](CC(C)C)C(=O)N[C@@H](CCCNC(=N)N)C(=O)N[C@@H](CCCCN)C(=O)N[C@H](C(=O)N[C@@H](CCCNC(=N)N)C(=O)N[C@@H](CCSC)C(=O)N[C@@H](CCSC)C(=O)N[C@@H](CC(=O)O)C(=O)N[C@H](C(=O)N[C@@H](CCCCN)C(=O)N[C@@H](CCCCN)C(N)=O)C(C)C)C(C)C)[C@@H](C)CC)[C@@H](C)O [Peptide 2853829, Myristoyl-LTFIFRLRKVRMMDVKK-NH2] (Myristoyl-LTFIFRLRKVRMMDVKK-NH2) | 167 | 68 | 131 | 10000 | 89.50% | 91.73% | 94.67% | 5.88% | 4 | 91.97% | 9.41% | 7.42% | 4.79%
CCCCCCCCCCCCCC(=O)N[C@@H](CC(C)C)C(=O)N[C@H](C(=O)N[C@@H](Cc1ccccc1)C(=O)N[C@H](C(=O)N[C@@H](Cc1ccccc1)C(=O)N[C@@H](CCCNC(=N)N)C(=O)N[C@@H](CC(C)C)C(=O)N[C@@H](CCCNC(=N)N)C(=O)N[C@@H](CCCCN)C(=O)NCC(=O)N[C@@H](CCC(=O)O)C(=O)N[C@@H](CCSC)C(=O)N[C@@H](CCSC)C(=O)N[C@@H](CC(=O)O)C(=O)N[C@H](C(=O)N[C@@H](CCCCN)C(=O)N[C@@H](CCCCN)C(N)=O)C(C)C)[C@@H](C)CC)[C@@H](C)O [Peptide 2853830, Myristoyl-LTFIFRLRKGEMMDVKK-NH2] (Myristoyl-LTFIFRLRKGEMMDVKK-NH2) | 5072 | 4491 | 4600 | 8489 | 45.65% | 53.16% | 55.12% | 29.21% | 1312 | 51.31% | 48.71% | 42.02% | 40.27%
